The test system of assay [1] is neurons from APP-KI mouse. Put plainly: Human Aβ42 secreted by APP-KI mouse neurons. Format: cell-based. As to conditions: LA-treated versus c9,t11-CLA-treated nerves, p<0.05, not shown. The source says: The amount of Aβ42 generated from endogenous amyloid-β (Aβ) precursor protein APP is usually very small. Thus, it is difficult to accurately quantify Aβ42 secreted from wild-type mouse neurons. Then, the mouse Aβ sequence was changed to a human form (in FIG. 3(B), the mouse and human amino acid sequences). After that, neurons from a knock-in mouse, into which a familial Alzheimer's disease mutation that increases the level of Aβ42 produced was introduced, (Apptm3.1Tcs/Apptm3.1Tcs) (hereinafter, the same as a mouse called APP-KI mouse described in Non-Patent Literature 6: Saito et al. [2014] Nature Neuroscience 17, 661-663) were cultured in a manner similar to the above. Finally, human Aβ42 secreted while the same experiments as in FIG. 3(A) were repeated was quantified (Non-Patent Literature 7: Kimura, Hata, Suzuki [2016] J. Biol. Chem. 291, 24041-24053).

Assay [2] addresses T1, recombinant BACE1 (rBACE1) (Homo sapiens, UniProt P56817).
T1 construct: purchased R&D Systems 931-AS
The experiment in a line: BACE1 activity with recombinant BACE1 in the presence of LA or c9,t11-CLA. Type of assay: biochemical. As to conditions: 100 μM; for BACE1 activity compared to just a solvent DMSO: rBACE1, 37° C. 15 min, then substrate 1 h. The protocol: Whether or not c9,t11-CLA directly acted on BACE1 and changed its activity was checked by measuring the BACE1 activity in the presence or absence of LA or c9,t11-CLA while recombinant BACE1 (rBACE1, catalog number 931-AS; R&D Systems, Minneapolis, Minn., USA) was used (FIG. 6). First, 100 μM LA or c9,t11-CLA, which had been dissolved in DMSO, was added to rBACE1, and the mixture was incubated at 37° C. for 15 min. Next, a chromogenic substrate was added and incubated at 37° C. for 1 h. Then, the BACE1 activity was measured.

In the next assay the test system is neurons. As to conditions: Non-Patent Literature 1; cited from earlier work.
The test system of a further assay is AD model mice. The experiment in a line: AD model mice with oral intake of c9,t11-CLA: brain staining (IL-10, phosphorylated tau, astrocytes, microglia). Format: in vivo, mouse.
For another assay, the system named is neural stem cells. The note with it: Non-Patent Literature 3; cited from earlier work.
For another assay, the system named is BACE1. The experiment in a line: BACE1 activity of wild-type mouse neurons (β-Secretase Activity Assay Kit). Type of assay: cell-based. As to conditions: 10 uM, 24 h, compared with LA-added neurons. On the procedure: The BACE1 activity of the above wild-type mouse neurons used in the experiments shown in FIG. 3 was measured using a β-Secretase (BACE1) Activity Assay Kit (“ab65357”, Abcam, Inc.) in accordance with the instructions.

A further assay relates to wild-type mouse neurons. Put plainly: Aβ40 secreted into culture medium by wild-type mouse neurons (sandwich ELISA). Format: cell-based. The note with it: 10 uM, 24 h; compared with LA-added neurons (LA set to 1.0). On the procedure:
Neurons in the cerebral cortex and hippocampus were isolated from the fetal brain of wild-type mouse (C57BL6/J) and were cultured in Neurobasal Medium containing 2% B-27 Supplement (Invitrogen), 4 mM Glutamax I, and 5% heat-inactivated horse serum (the other detailed conditions were substantially the same as in the protocol disclosed in Non-Patent Literature 4: Chiba et al., [2014] Mol. Biol. Cell 25, 3569-3580).
Primary culture nerves (5×10^3 cells), which had been cultured by the above procedure for 9 to 12 days (DIV9-12), were cultured for 24 h in each of a culture medium containing 10 uM linoleic acid (LA “L1376”, Sigma-Aldrich, Inc.) or a culture medium containing 10 uM c9,t11-CLA (purity: 98%, ABCAM, Inc.) (the experiment was triplicate: n=3 to 6). Next, for each of a sample using LA or a sample using c9,t11-CLA, mouse amyloid β-protein 40 (Aβ40) secreted into the culture medium was quantified by sandwich ELISA (sELISA). […]
The complex was then reacted with an IgG Fab′ fragment of HRP (Horseradish peroxidase)-labeled mouse/rat Aβ(1-16) sequence-specific (rabbit) antibody (IBL, Inc.: Immuno-Biological Laboratories Co, Ltd.). After that, TMB (3,3′,5,5′-tetramethyl benzidine) was used as a chromogenic substrate for quantification. […] In FIG. 3(A), while the level of Aβ40 secreted when LA was added was set to 1.0, the level of Aβ40 secreted when c9,t11-CLA was added was quantified.

A further assay has as its system wild-type neurons. Put plainly: Western blot of APP, BACE1 and PS1 NTF levels in wild-type neurons. Type of assay: cell-based, mouse. The note with it: c9,t11-CLA versus LA. The protocol:
Western blot was used to analyze the level of APP (Aβ precursor, which is a substrate for BACE1), BACE1, PS1 NTF (a catalytic unit of γ-Secretase, which is an enzyme for cleaving CTFβ, an APP C-terminal fragment containing an Aβ sequence cleaved by BACE1, to generate Aβ), and a membrane protein Flotillin (control protein) in the LA-added or c9,t11-CLA-added wild-type neurons. The whole cells were lysed in RIPA buffer (components: 50 mM Tris-HCl [pH 8.0], 150 mM NaCl, 0.5% SDS, 0.5% sodium deoxycholate, and 1% Nonidet P-40). The extracted proteins (15 μg protein) were subjected to electrophoresis using SDS-polyacrylamide gel. Then, Western blot with each antibody was used to analyze APP (with the same as an antibody G369, described in Non-Patent Literature 8: Oishi et al. [1997] Mol. Med. 3, 111-123), BACE1 (with an antibody D10E5; Cell Signaling Technology, Inc.), PS1 NTF (with the same as an antibody Ab14, described in Non-Patent Literature 9: Thinakaran et al. [1996] Neuron, 17, 181-190), and Flotillin-1 (with an antibody 610821, BD Bioscience, Inc.). The protein reacted with each antibody was detected using a Clarity Western ECL substrate (Cat *170-5061; Bio-Rad) and quantified with LAS-4000 (Fujifilm).
(In general: A western blot detects proteins with antibodies after separation by electrophoresis.)

Where [3] appears, read: hippocampus, oral intake versus no intake.

T1 sequence (P56817 46-457 limits assumed): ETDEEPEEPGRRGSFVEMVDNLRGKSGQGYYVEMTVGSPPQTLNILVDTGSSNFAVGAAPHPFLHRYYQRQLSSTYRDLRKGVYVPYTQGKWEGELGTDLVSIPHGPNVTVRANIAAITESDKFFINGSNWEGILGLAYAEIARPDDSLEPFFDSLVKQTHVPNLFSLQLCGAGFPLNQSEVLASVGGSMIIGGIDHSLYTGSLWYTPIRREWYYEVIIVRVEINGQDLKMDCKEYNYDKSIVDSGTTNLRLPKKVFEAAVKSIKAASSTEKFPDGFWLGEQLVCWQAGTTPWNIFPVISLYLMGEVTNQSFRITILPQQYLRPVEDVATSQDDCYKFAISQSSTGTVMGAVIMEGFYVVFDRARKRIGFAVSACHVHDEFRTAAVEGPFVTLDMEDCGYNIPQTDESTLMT

As for `CCCCC/C=C\C/C=C\CCCCCCCC(=O)O` [LA, linoleic acid, reference compound], the “level of human Aβ42 secreted” value in assay [1] is recorded as “significantly lower”. Moreover, the “BACE1 activity compared to just a solvent DMSO” value in assay [2] was “increase in the activity”.
Regarding `CCCCCC/C=C/C=C\CCCCCCCC(=O)O` [c9,t11-CLA, c9,t11-conjugated linoleic acid], the “prevention of glutamic acid-induced hyper-excited state and cell death of neurons (neuroprotective effect)” value in the assay with neurons is “can exert the effects”. Moreover, the “Microglia (Iba1 staining)” value with AD model mice (cortex, CLA intake group) is recorded as “significant increase”. In addition, in the assay with AD model mice (hippocampus, CLA intake group), the “Microglia (Iba1 staining)” value was “significant increase” and the “number of IL-10-expressing cells” value is reported as “significantly increased”. Further, in the assay with AD model mice (setting [3]), the Astrocyte staining result was “tended to decrease” and the “Phosphorylated tau protein staining” value is recorded as “tended to decrease”. The “effect on growth of neural stem cells” value in the assay with neural stem cells was “promoting growth of neural stem cells”. Moreover, the “difference in BACE1 activity between LA and c9,t11-CLA” value in assay [2] (rBACE1) is on record as “no observed significant difference”. Further, in assay [2], the “BACE1 activity compared to just a solvent DMSO” value is given as “increase in the activity”. In the assay with BACE1, the “BACE1 activity of neurons” value is listed as “significantly lower”. Moreover, the “level of Aβ produced/secreted (mouse Aβ40)” value in the assay with wild-type mouse neurons is “significantly lower”. In the assay with wild-type neurons, the “level of APP” value is reported as “no observed significant difference”, the “level of BACE1” value is given as “no observed significant difference” and the “level of PS1 NTF” value is reported as “no observed significant difference”.
Regarding `CCCCC/C=C\C=C\CCCCCCCCC(=O)O` [t10,c12-CLA, t10,c12-conjugated linoleic acid, reference compound], the “prevention of glutamic acid-induced hyper-excited state and cell death of neurons (neuroprotective effect)” value with neurons is “fails to exert such effects”. Besides, in the assay with neural stem cells, the “effect on growth of neural stem cells” value is reported as “inhibition of growth of neural stem cells”.

(Values after US20220096415A1, “Composition for Improving Cognitive Function” (Demencare Laboratory Inc., priority 2018, published 2022).)
